Data published in patent US9789086B1, “N-(5-arylamido-2-methylphenyl)-5-methylisooxazole-4-carboxamide deravative, pharmaceutical acceptable salt thereof, method for preparation therof and FMS kinase inhibitor comprising the same as anactive ingredient” (Industry-University Cooperation Foundation Hanyang …, priority 2014, dated 2017).

Key:
FMS = target: T1, FMS (Homo sapiens, UniProt P07333); assay: FMS inhibitory activity (Reaction Biology Kinase profiling, IC50 profiler express); format: biochemical
T1 construct: purchased Reaction Biology Corporation
T1 sequence (P07333 20-972): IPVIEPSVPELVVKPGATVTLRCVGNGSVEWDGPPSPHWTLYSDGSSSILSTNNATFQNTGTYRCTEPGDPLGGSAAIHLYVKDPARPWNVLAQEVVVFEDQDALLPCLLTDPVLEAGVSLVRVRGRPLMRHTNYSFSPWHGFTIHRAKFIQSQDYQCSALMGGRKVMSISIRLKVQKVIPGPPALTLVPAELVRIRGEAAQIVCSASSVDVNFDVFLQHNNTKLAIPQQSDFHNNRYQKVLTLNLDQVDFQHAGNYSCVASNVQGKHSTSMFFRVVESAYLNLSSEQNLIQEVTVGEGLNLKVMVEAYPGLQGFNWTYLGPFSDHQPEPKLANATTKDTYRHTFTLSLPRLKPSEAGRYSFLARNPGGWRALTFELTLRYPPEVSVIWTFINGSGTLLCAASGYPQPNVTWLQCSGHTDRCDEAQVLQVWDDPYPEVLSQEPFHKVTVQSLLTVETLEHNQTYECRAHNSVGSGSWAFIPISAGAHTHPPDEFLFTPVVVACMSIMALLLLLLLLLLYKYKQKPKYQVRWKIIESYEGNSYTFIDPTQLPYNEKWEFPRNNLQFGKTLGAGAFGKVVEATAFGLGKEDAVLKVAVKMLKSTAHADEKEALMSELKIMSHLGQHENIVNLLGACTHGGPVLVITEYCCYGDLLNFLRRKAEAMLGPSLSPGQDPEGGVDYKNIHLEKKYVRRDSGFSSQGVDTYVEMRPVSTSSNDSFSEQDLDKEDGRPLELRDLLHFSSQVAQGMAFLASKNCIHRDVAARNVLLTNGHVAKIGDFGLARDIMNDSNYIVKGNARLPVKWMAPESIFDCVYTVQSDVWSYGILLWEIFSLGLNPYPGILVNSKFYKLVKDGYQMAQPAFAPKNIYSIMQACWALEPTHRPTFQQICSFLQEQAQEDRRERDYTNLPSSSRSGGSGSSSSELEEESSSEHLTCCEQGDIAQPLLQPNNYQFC
Experimental: The inhibitory activity of FMS at a concentration of 10 μM of the compound prepared in Example 5 was measured using Kinase profiling services (IC 50 profiler express) offered by Reaction Biology Corporation.

U937 cell line = U937 cell line proliferation inhibitory activity (MTT assay); format: cell-based; settings: Homo sapiens, U-937, U937 cells
Experimental: (§1) In order to measure cell viability, MTT [3-(4,5-dimethylthiazole-2-yl)-2,5-diphenyltetrazolium bromide] activity assay method (Thiazolyl Blue Tetrazolium Bromide, Sigma Aldrich) was used. Cell lines were cultured in 96-well plates for 24 hours and treated with the compounds of Examples previously prepared. For the compound treatment, 10 mM stocks were prepared, serially diluted in DMSO and added by 0.5 μL at 8 points (final concentration of 0.5%). The cell lines in plates treated with the compounds was cultured for 48 hours, then 15 μL of dye was added to each well and cultured for 4 hours. Then, 100 μL of DMSO solvent was added to each well, and the formed solid was dissolved to measure the absorbance. The absorbance was read at a wavelength of 570 nm using EnVision 2103, and the GI 50 value was calculated using GraphPad Prism 4.0 software, and the results are shown in Table 1 below.
U937 cell lines were purchased from ATCC and cultured in a RPMI culture medium (containing 10% FBS, 1% penicillin/streptomycin and 25 mM HEPES) in the presence of 5% CO2 at 37° C. The cell line proliferation inhibitory activity for Examples previously prepared was measured using the same MTT activity assay method as the A375P cell line proliferation inhibitory activity assay in Experimental Example 1.

A375P cell line = A375P cell line proliferation inhibitory activity (MTT assay); format: cell-based; settings: A375P cells, 48 hours treatment
Experimental: A375P cell lines were purchased from ATCC and cultured in a DMEM culture medium (containing 10% FBS and 1% penicillin/streptomycin) in the presence of 5% CO2 at 37° C. The cultured A375P cell lines were taken from culture substrate with 0.05% trypsin-0.02% EDTA and plated at a density of 5×10^3 cells per well in 96-well plates.
as §1

With `Cc1ccc(NC(=O)c2ccc(Cl)c(C(F)(F)F)c2)cc1NC(=O)c1cnoc1C` [Example 5, N-(5-(4-chloro-3-(trifluoromethyl)benzamido)-2-methylphenyl)-5-methylisoxazole-4-carboxamide] the inhibition at 10 µM (FMS; compound concentration 10 μM, read-out: FMS activity inhibited) was 98.7%, the IC50 (FMS; sequentially decreasing concentration, read-out: concentration that inhibits FMS activity by 50% (IC50)) was 0.00995 µM and the GI50 (U937 cell line) was 10 to 30 µM. It also gave a GI50 (A375P cell line) of 10 to 30 µM.

`Cc1ccc(NC(=O)c2ccccc2-c2ccccc2)cc1NC(=O)c1cnoc1C` [Example 25, N-(5-biphenyl-2-ylcarboxamido-2-methylphenyl)-5-methylisoxazole-4-carboxamide] showed a GI50 (U937 cell line) of 10 to 30 µM and a GI50 (A375P cell line) of 10 to 30 µM.

With `Cc1cc(NC(=O)Nc2cccc(C(F)(F)F)c2)ccc1NC(=O)c1cnoc1C` [Example 36, 5-methyl-N-(2-methyl-4-(3-(3-(trifluoromethyl)phenyl)ureido)phenyl)isoxazole-4-carboxamide] the GI50 (U937 cell line) was 10 to 30 µM and the GI50 (A375P cell line) was 10 to 30 µM.

Compound `Cc1ccc(NC(=O)C2Cc3ccccc3N2)cc1NC(=O)c1cnoc1C` (centres unmarked) [Example 19, N-(5-(indoline-2-carboxamido)-2-methylphenyl)-5-methylisoxazole-4-carboxamide] has a GI50 (U937 cell line) of 10 to 30 µM and a GI50 (A375P cell line) of 10 to 30 µM.

With `Cc1ccc(NC(=O)c2cnccn2)cc1NC(=O)c1cnoc1C` [Example 17, 5-methyl-N-(2-methyl-5-(pyrazine-2-carboxamido)phenyl)isoxazole-4-carboxamide] the GI50 (U937 cell line) was 10 to 30 µM and the GI50 (A375P cell line) was 10 to 30 µM.

In the case of `CCCS(=O)(=O)Nc1ccc(C)c(NC(=O)c2cnoc2C)c1` [Example 42, 5-methyl-N-(2-methyl-5-(propylsulfonamido)phenyl)isoxazole-4-carboxamide], the GI50 (U937 cell line) is reported as 10 to 30 µM and the GI50 (A375P cell line) is reported as 10 to 30 µM.

Compound `Cc1ccc(NC(=O)Nc2cccc(C(F)(F)F)c2)cc1NC(=O)c1cnoc1C` [Example 29, 5-methyl-N-(2-methyl-5-(3-(3-(trifluoromethyl)phenyl)ureido)phenyl)isoxazole-4-carboxamide] has a GI50 (U937 cell line) of 10 to 30 µM and a GI50 (A375P cell line) of 10 to 30 µM.

`Cc1cc(NC(=O)c2ccc(N3CCOCC3)c(C(F)(F)F)c2)ccc1NC(=O)c1cnoc1C` [Example 1, 5-methyl-N-(2-methyl-4-(4-morpholino-3-(trifluoromethyl)benzamido)phenyl)isoxazole-4-carboxamide] gave a GI50 (U937 cell line) of 10 to 30 µM and a GI50 (A375P cell line) of 10 to 30 µM.

`Cc1ccc(NC(=O)c2ccc3ccccc3n2)cc1NC(=O)c1cnoc1C` [Example 12, 5-methyl-N-(2-methyl-5-(quinoline-2-carboxamido)phenyl)isoxazole-4-carboxamide] was tested, and the GI50 (U937 cell line) was 10 to 30 µM and the GI50 (A375P cell line) was 10 to 30 µM.

Compound `Cc1ccc(NC(=O)c2ccc(Cl)cc2)cc1NC(=O)c1cnoc1C` [Example 7, N-(5-(4-chlorobenzamido)-2-methylphenyl)-5-methylisoxazole-4-carboxamide] has a GI50 (U937 cell line) of 10 to 30 µM and a GI50 (A375P cell line) of 10 to 30 µM.

With `Cc1ccc(NC(=O)c2ccc3[nH]nnc3c2)cc1NC(=O)c1cnoc1C` [Example 18, N-(5-(1H-benzo[d][1,2,3]triazole-5-carboxamido)-2-methylphenyl)-5-methylisoxazole-4-carboxamide] the GI50 (U937 cell line) was 10 to 30 µM and the GI50 (A375P cell line) was 10 to 30 µM.

In the case of `CCCS(=O)(=O)Nc1ccc(NC(=O)c2cnoc2C)c(C)c1` [Example 43, 5-methyl-N-(2-methyl-4-(propylsulfonamido)phenyl)isoxazole-4-carboxamide], the GI50 (U937 cell line) is reported as 10 to 30 µM and the GI50 (A375P cell line) is reported as 10 to 30 µM.
